Source: patent US20100331312A1, “MODULATORS OF THE HISTAMINE H3 RECEPTOR USEFUL FOR THE TREATMENT OF DISORDERS RELATED THERETO” (ARENA PHARMACEUTICALS, INC., priority 2008, published 2010)
Counter-ions that a name gives are not always drawn.

Legend:
[1] = molecular target: T1, Histamine H3 Receptor (Rattus norvegicus, UniProt Q9QYN8); assay: Blockade of RAMH-induced drinking assay; type: in vivo; details: male Sprague Dawley rats, 0.3 mg/kg PO, RAMH 3 mg/kg SC, reduction in water intake
Protocol: Blockade of RAMH-Induced Drinking Assay
When administered to rodents, histamine H3 receptor agonists such as (R)-α-methylhistamine (RAMH) induce a drinking response that is sensitive to reversal with a histamine H3 receptor antagonist. Blockade of RAMH-induced drinking can therefore be utilized as an in vivo assay for functional histamine H3 receptor antagonist activity. In this assay, male Sprague Dawley rats (250-350 g) were housed three per cage and maintained under a reverse 12 h light cycle (lights off at 1130 h). At 1030 h on the day of test, rats were individually housed in new cages and food was removed. 120 min later, rats were administered test article (vehicle or histamine H3 receptor antagonist, 0.3 mg/kg PO). 30 min later, water was removed, and RAMH (vehicle or RAMH 3 mg/kg salt SC) was administered. 10 min after administration of RAMH, weighed water bottles were placed in the cages, and drinking was allowed for 20 min. Water consumption was determined for each animal by weighing each bottle to the nearest 0.1 g. Data is expressed as percentage reduction in water intake according to the following formula:
[((VEH/RAMH)−(ANTAGONIST/RAMH))/((VEH/RAMH)−(VEH/VEH))]*100

[2] = molecular target: T1, Histamine H3 Receptor; assay: [3H] N-alpha-methyl-histamine competitive histamine H3 receptor binding assay; parameters: A crude membrane fraction was prepared from whole rat brain cortex; from tissue; host or cells: whole rat brain cortex, crude membrane fraction; details: whole rat brain cortex membranes, [3H]-N-α-methylhistamine 1 nM
Protocol: [^3H] N-Alpha-Methyl-Histamine Competitive Histamine H3 Receptor Binding Assay
The histamine receptor binding assay was conducted using standard laboratory procedures as described below. A crude membrane fraction was prepared from whole rat brain cortex using a polytron to homogenize the tissue followed by differential centrifugation in a HEPES-based buffer containing protease inhibitors. Membranes where frozen at −80° C. until needed. Frozen membranes were thawed and resuspended in ice-cold assay buffer consisting of 50 mM TRIS containing 5 mM EDTA (pH=7.4). 50 micrograms (μg) of membrane protein was added to each well of a 96-well assay plate along with test compound and [^3H]-N-α-methylhistamine (1 nanomolar (nM) final assay concentration). Imetit was used as an assay positive control at varying concentrations. The plate was incubated for 30 min at room temperature. The assay was terminated by rapid filtration through a 96-well glass fiber filtration plate (GF/C) using a cell harvester (Perkin-Elmer). Captured membranes were washed three times with cold assay buffer and plates were dried at 50° C. 35 microliters (μL) of scintillation cocktail was added to each well and membrane-bound radioactivity was recorded using a TopCount 96-well plate scintillation counter (Perkin-Elmer).

[3] = molecular target: T2, human histamine H3 receptor (Homo sapiens, UniProt Q9Y5N1); assay: Human histamine H3 receptor binding assay, MDS Pharma Services (Taiwan), Catalogue No. 239810
T2 construct: purchased MDS Pharma Services (Taiwan) 239810
Protocol: Human Histamine H3 Receptor Binding Assay—MDS Pharma Services (Taiwan)
Compounds of the invention were tested for their ability to bind to the human histamine H3 receptor using the MDS Pharma Services (Taiwan) assay, Catalogue No. 239810.

[4] = Dynamic vapor sorption (DVS) hygroscopicity; type: physicochemical; details: 25° C.
Protocol: Dynamic Vapor Sorption (DVS)
Hygroscopicity was measured using a dynamic moisture-sorption analyzer, VTI Corporation, SGA-100. The sample was placed as-is in a tared sample holder on the VTI balance. A drying step was run at 40° C. and ˜1% RH for 120 minutes. The isotherm conditions are 25° C. with steps of 20% RH from 10% RH up to 90% RH and back to 10% RH. Weight is checked every 2 minutes. Percent weight change of <0.01% in 20 minutes or 2 hours, whichever occurs first, is required before continuing to the next step. The DVS profile for the crystalline form (Form 1) of (R)-2-hydroxy-1-(6-(4-(2-(2-methylpyrrolidin-1-yl)ethyl)phenyl)-3,4-dihydroisoquinolin-2(1H)-yl)ethanone hydrochloride is shown in FIG. 16.

T1 sequence (Q9QYN8 whole entry): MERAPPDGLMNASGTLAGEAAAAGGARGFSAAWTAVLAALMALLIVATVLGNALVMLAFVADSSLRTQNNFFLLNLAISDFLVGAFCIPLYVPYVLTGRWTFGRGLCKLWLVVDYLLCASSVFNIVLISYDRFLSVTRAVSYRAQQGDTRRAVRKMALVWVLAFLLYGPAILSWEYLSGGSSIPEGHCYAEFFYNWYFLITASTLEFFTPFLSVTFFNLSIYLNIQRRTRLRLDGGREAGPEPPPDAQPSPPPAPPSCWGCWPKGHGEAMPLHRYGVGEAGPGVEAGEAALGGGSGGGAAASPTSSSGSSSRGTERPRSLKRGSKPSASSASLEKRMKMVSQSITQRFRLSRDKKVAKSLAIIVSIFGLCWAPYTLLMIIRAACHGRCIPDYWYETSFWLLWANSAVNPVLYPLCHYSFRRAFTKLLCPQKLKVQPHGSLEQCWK
T2 sequence (Q9Y5N1 whole entry): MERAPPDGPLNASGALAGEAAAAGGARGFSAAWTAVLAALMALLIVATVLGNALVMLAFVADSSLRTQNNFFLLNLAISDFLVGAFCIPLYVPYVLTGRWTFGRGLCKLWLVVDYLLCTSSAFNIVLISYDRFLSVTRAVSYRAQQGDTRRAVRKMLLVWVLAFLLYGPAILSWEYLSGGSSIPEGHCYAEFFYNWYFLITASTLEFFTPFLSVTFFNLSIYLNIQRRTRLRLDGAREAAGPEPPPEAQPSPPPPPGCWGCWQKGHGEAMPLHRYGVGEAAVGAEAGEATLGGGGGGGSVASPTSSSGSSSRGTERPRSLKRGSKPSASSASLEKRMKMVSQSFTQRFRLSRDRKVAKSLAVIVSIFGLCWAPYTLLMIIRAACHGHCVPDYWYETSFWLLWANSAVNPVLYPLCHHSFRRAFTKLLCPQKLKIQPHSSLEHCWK

| SMILES | % inhibition of RAMH-induced drinking [1] [%] | Ki [2] [nM] | other results |
| --- | --- | --- | --- |
| COCCC(=O)N1CCc2ccc(-c3ccc(CCN4CCC[C@H]4C)cc3)cc2C1 [Compound 1, (R)-3-methoxy-1-(7-(4-(2-(2-methylpyrrolidin-1-yl)ethyl)phenyl)-3,4-dihydroisoquinolin-2(1H)-yl)propan-1-one] | 81.6 |  |  |
| COc1ccc(C(=O)N2CCc3cc(-c4ccc(CCN5CCC[C@H]5C)cc4)ccc3C2)cc1 [Compound 9, (R)-(4-methoxyphenyl)(6-(4-(2-(2-methylpyrrolidin-1-yl)ethyl)phenyl)-3,4-dihydroisoquinolin-2(1H)-yl)methanone] |  | 1.1 |  |
| C[C@@H]1CCCN1CCc1ccc(-c2ccc3c(c2)CCN(C(=O)CO)C3)cc1 [Compound 10 HCl Salt (Form 1), (R)-2-hydroxy-1-(6-(4-(2-(2-methylpyrrolidin-1-yl)ethyl)phenyl)-3,4-dihydroisoquinolin-2(1H)-yl)ethanone hydrochloride] |  |  | DVS absorption at 90% relative humidity ([4]; crystalline Form 1, hydrochloride): FIG. 16: absorption of less than 0.25%; DVS absorption at 90% relative humidity ([4]; crystalline Form 1, listed as Form 1 of the HCl salt of Compound 10, hydrochloride): about 0.25% |
| C[C@@H]1CCCN1CCc1ccc(-c2ccc3c(c2)CN(C(=O)C2CCOCC2)C3)cc1 [Compound 12, (R)-(5-(4-(2-(2-methylpyrrolidin-1-yl)ethyl)phenyl)isoindolin-2-yl)(tetrahydro-2H-pyran-4-yl)methanone] |  | 0.09 |  |
| C[C@@H]1CCCN1CCc1ccc(-c2ccc3c(c2)CCN(C(=O)c2ccccn2)C3)cc1 [Compound 18, (R)-(6-(4-(2-(2-methylpyrrolidin-1-yl)ethyl)phenyl)-3,4-dihydroisoquinolin-2(1H)-yl)(pyridin-2-yl)methanone] | 66.1 |  | Ki [3]: 2.15 nM |

Second part, led by results:

| % inhibition of RAMH-induced drinking [1] [%] | Ki [2] [nM] | SMILES | other results |
| --- | --- | --- | --- |
|  | 0.45 | C[C@@H]1CCCN1CCc1ccc(-c2ccc3c(c2)CCN(C(=O)C2CC2)C3)cc1 [Compound 3, (R)-cyclopropyl(6-(4-(2-(2-methylpyrrolidin-1-yl)ethyl)phenyl)-3,4-dihydroisoquinolin-2(1H)-yl)methanone] |  |
|  | 0.11 | C[C@@H]1CCCN1CCc1ccc(-c2ccc3c(c2)CN(C(=O)C2CC2)C3)cc1 [Compound 5, (R)-cyclopropyl(5-(4-(2-(2-methylpyrrolidin-1-yl)ethyl)phenyl)isoindolin-2-yl)methanone] | Ki [3]: 0.57 nM |
| 40.7 |  | C[C@@H]1CCCN1CCc1ccc(-c2ccc3c(c2)CCN(C(=O)c2ccncc2)C3)cc1 [Compound 14, (R)-(6-(4-(2-(2-methylpyrrolidin-1-yl)ethyl)phenyl)-3,4-dihydroisoquinolin-2(1H)-yl)(pyridin-4-yl)methanone] |  |
|  | 1.52 | C[C@@H]1CCCN1CCc1ccc(-c2ccc3c(c2)CCN(C(=O)CCO)C3)cc1 [Compound 16, (R)-3-hydroxy-1-(6-(4-(2-(2-methylpyrrolidin-1-yl)ethyl)phenyl)-3,4-dihydroisoquinolin-2(1H)-yl)propan-1-one] |  |
